{
  "source": "paper PMC13286052",
  "about": "(Antimicrobial Agents and Chemotherapy, 2026)",
  "key": {"[1]": {"system": "VACV", "type": "cell-based, vaccinia virus", "details": "48 h"}, "[2]": {"system": "VACV", "details": "cited from earlier work"}, "[3]": {"system": "MPXV resolvase (Mpr)", "type": "biochemical, monkeypox virus", "details": "50 µM"}, "[4]": {"system": "poxvirus resolvases", "details": "cited from earlier work"}, "[5]": {"system": "vaccinia virus (VACV)", "test": "microbe, parasite or virus in culture", "type": "cell-based", "details": "for EC50: Orthopoxvirus vaccinia"}, "[6]": {"system": "VACV gene expression", "type": "cell-based", "details": "10 µM"}, "[7]": {"system": "VACV E3", "type": "cell-based, vaccinia virus", "details": "10 µM"}, "[8]": {"system": "VACV DNA replication", "type": "cell-based, vaccinia virus", "details": "10 µM"}, "[9]": {"system": "VACV", "type": "cell-based, vaccinia virus"}, "[10]": {"system": "VACV", "type": "cell-based, vaccinia virus", "details": "10 µM"}, "[11]": {"system": "HFFs"}, "[12]": {"details": "male, CD-1, mouse, in vivo"}, "[13]": {"system": "HCMV", "details": "cited from earlier work"}, "[14]": {"system": "pUL89C", "details": "cited from earlier work"}, "[15]": {"test": "in vivo", "details": "male, CD-1, mouse"}, "[16]": {"test": "in vitro", "details": "human"}, "[17]": {"details": "microsomes; cited from earlier work"}},
  "note": "“Also recorded” adds a separate entry of the source.",
  "data": [
    {"smiles": "Nc1ccn([C@@H]2O[C@H](CO)[C@@H](O)[C@@H]2O)c(=O)n1", "note": "[AraC, Cytarabine, reference compound]", "values": [
      {"measurement": "late viral gene expression in rhesus colon enteroids", "setting": "[1]", "result": "markedly reduced"}
    ]},
    {"smiles": "Cc1cc(C2CCCCC2)n(O)c(=O)c1", "note": "[Ciclopirox]", "values": [
      {"measurement": "inhibition of VACV replication", "setting": "[2]", "result": "efficient inhibitors of VACV replication"}
    ]},
    {"smiles": "O=c1c(-c2ccccc2)c(O)c2cc(-c3cccc(-c4ccccc4)c3)cnc2n1O", "note": "[Compound 1, reference compound]", "values": [
      {"measurement": "Mpr inhibition", "setting": "[3]", "result": "nearly complete inhibition"},
      {"measurement": "inhibition of poxvirus resolvases", "setting": "[4]", "result": "potently inhibits"}
    ]},
    {"smiles": "O=C(NNc1nc2cc(F)ccc2n2cccc12)c1cnccn1", "note": "[SC144]", "values": [
      {"measurement": "inhibition of VACV replication", "setting": "[2]", "result": "efficient inhibitors of VACV replication"}
    ]},
    {"smiles": "O=C(NN1C(=O)[C@@H]2[C@@H]3C=C[C@@H]([C@H]4C[C@@H]34)[C@@H]2C1=O)c1ccc(C(F)(F)F)cc1", "note": "[Tecovirimat, reference compound]", "values": [
      {"measurement": "EC50", "setting": "[5]", "result": 25, "unit": "nM"}
    ]},
    {"smiles": "O=C(NCCc1ccc(F)cc1F)c1cn(Cc2ccc(F)cc2)cc(O)c1=O", "note": "[ZW-2038]", "values": [
      {"measurement": "reduction of Gaussia luciferase activity", "setting": "[5]; 10 µM", "result": "more than 99%"},
      {"measurement": "EC50", "setting": "[5]", "result": 876, "unit": "nM"},
      {"measurement": "luciferase activity from the early promoter (vEGluc)", "setting": "[6]", "result": "did not affect"},
      {"measurement": "reporter activity from intermediate promoter (vIGluc)", "setting": "[6]", "result": "significantly diminished"},
      {"measurement": "reporter activity from late promoter (vLGluc)", "setting": "[6]", "result": "significantly diminished"},
      {"measurement": "E3 levels", "setting": "[7]", "result": "did not reduce"},
      {"measurement": "viral DNA accumulation", "setting": "[8]", "result": "marked reduction"},
      {"measurement": "viral replication (luciferase activity) in human jejunum enteroids", "setting": "[9]", "result": "significantly suppressed"},
      {"measurement": "late viral gene expression in rhesus colon enteroids", "setting": "[1]", "result": "markedly reduced"},
      {"measurement": "VACV titers in ex vivo mouse lung tissue", "setting": "[10]", "result": "consistently reduced"},
      {"measurement": "Mpr inhibition", "setting": "[3]", "result": "no Mpr inhibition; also recorded: did not inhibit"},
      {"measurement": "cell viability compared to vehicle", "setting": "[11]", "result": "no significant difference"},
      {"measurement": "Bioavailability (F, %)", "setting": "[12]", "result": 4.1, "unit": "%"},
      {"measurement": "oral Cmax lower than IV Cmax", "setting": "[12]", "result": 14, "unit": "fold"},
      {"measurement": "CL", "setting": "[12]; po, 20 mg/kg", "result": "67 ± 50", "unit": "mL/min/kg"},
      {"measurement": "V", "setting": "[12]; po, 20 mg/kg", "result": "117 ± 46", "unit": "L/kg"},
      {"measurement": "inhibition of HCMV", "setting": "[13]", "result": "potently inhibited"},
      {"measurement": "inhibition of pUL89C", "setting": "[14]", "result": "did not inhibit"},
      {"measurement": "bioavailability", "setting": "[15]; Bioavailability (F, %)", "result": 4, "unit": "%"},
      {"measurement": "AUC(0-t)", "setting": "[15]; iv, 2 mg/kg", "result": "238 ± 54", "unit": "ng·h/mL"},
      {"measurement": "Cmax", "setting": "[15]; iv, 2 mg/kg", "result": 528, "unit": "ng/mL"},
      {"measurement": "MRT last", "setting": "[15]; iv, 2 mg/kg", "result": "0.9 ± 0.4", "unit": "h"},
      {"measurement": "Tmax", "setting": "[15]; iv, 2 mg/kg", "result": 0.08, "unit": "h"},
      {"measurement": "clearance", "setting": "[15]; iv, 2 mg/kg", "result": 150, "unit": "mL/min/kg"},
      {"measurement": "half-life", "setting": "[15]; iv, 2 mg/kg", "result": "5 ± 2", "unit": "h"},
      {"measurement": "AUC(0-t)", "setting": "[15]; po, 20 mg/kg", "result": "98 ± 15", "unit": "ng·h/mL"},
      {"measurement": "Cmax", "setting": "[15]; po, 20 mg/kg", "result": 38, "unit": "ng/mL"},
      {"measurement": "MRT last", "setting": "[15]; po, 20 mg/kg", "result": "11 ± 2", "unit": "h"},
      {"measurement": "Tmax", "setting": "[15]; po, 20 mg/kg", "result": "0.2 ± 0.2", "unit": "h"},
      {"measurement": "half-life", "setting": "[15]; po, 20 mg/kg", "result": "104 ± 159", "unit": "h"},
      {"measurement": "CC50", "setting": "[16]", "result": "> 500000", "unit": "nM"},
      {"measurement": "microsomal stability", "setting": "[17]", "result": "good"}
    ]}
  ]
}
